From patent US20230181535A1, “UBIQUITIN-LIGASE INHIBITORS FOR THE TREATMENT OF CANCER” (FUNDACIÓN PROFESOR NOVOA SANTOS, priority 2020, published 2023)

Key:
[1] = tested on: HT-29 human colorectal adenocarcinoma cell line; assay: E-cadherin at cell-cell contacts, Vala SIM / CyteSeer Cell-Cell Junction Algorithm, HT-29; format: cell-based; conditions: for increase of E-cadherin expression levels: 24 hours; for E-cadherin levels at cell-cell contacts: 48 hours, vs DMSO vehicle control
Protocol: (§1) For western blot analysis, cells were treated with the indicated inhibitors for 48 h and the whole cell extracts were obtained as described previously. Twenty micrograms of lysates were resolved on a 10% polyacrilamide SDS-PAGE followed by western blot analysis performed as previously described. For immunofluorescence assays cells were grown for 24 h on glass coverslips and treated with the indicated inhibitors for 48 h. Cells were fixed with 4% PFA for 15 min, permeabilized with 0.5% […] and incubated with E-cadherin antibody for 2 h. Coverslips were incubated with fluorescein-tagged secondary antibody (Dakopatts, Sweden) for […]. Finally coverslips were mounted with ProLong Gold antifade reagent (LifeTech, UK) and images were taken in epifluorescence microscope (Olympus) using 40× objective. Immunofluorescence of E-cadherin and DNA content analysis for FIGS. 22-23 were performed culturing of HT-29 human colorectal adenocarcinoma cell line in 384-well plates with densities of 3,000 cells per well in a total volume of 25 μl. After the completion of the staining, four images (2×2 array) of each well were taken with Vala Sciences' SIM™ with a 20× objective. Each image was acquired as a SIM Synthetic Focus with a z-stack range of 6 μm with 1 μm steps. The SIM Synthetic Focus feature will compile a “best focus” images from multiple images. One set of SIM Synthetic Focus images were taken in the DAPI channel for Hoechst 33342 staining, and another set of images were taken in the FITC channel for anti-E-cadherin-AlexaFluor488 labeling and analysed by Structured Illumination Microscopy (SIM™) platform to image the cells and Vala's CyteSeer® Cell-Cell Junction Algorithm to quantify the degree of expression and intracellular location of E-cadherin Vala's CyteSeer® Software can also measure relative DNA content by analyzing Total Integrated Intensity (TII) of the Nuclear Image (Ni) on the Nuclear Mask (Nm). This analysis was performed by Vala Science. Twenty compounds from were assayed in a “blinded” manner, at 2 test concentrations in 6 replicate wells for first assay and 3 replicate for second assay.

HT-29 cells [2] = assay: Cell cycle (DNA content) analysis with CyteSeer, HT-29; format: cell-based, human
Protocol: as §1

[3] = biological target: T1, E3 ubiquitin-ligase Hakai (Mus musculus, UniProt Q9JIY2); assay: In vivo Hakai-dependent ubiquitination assay in 293T cells; format: cell-based; conditions: vs DMSO; for Hakai-induced ubiquitination: HEK293T cells transfected with Hakai and ubiquitin
T1 construct: expressed in transfected cells; host or cells: HEK293T
T1 sequence (Q9JIY2 1-491): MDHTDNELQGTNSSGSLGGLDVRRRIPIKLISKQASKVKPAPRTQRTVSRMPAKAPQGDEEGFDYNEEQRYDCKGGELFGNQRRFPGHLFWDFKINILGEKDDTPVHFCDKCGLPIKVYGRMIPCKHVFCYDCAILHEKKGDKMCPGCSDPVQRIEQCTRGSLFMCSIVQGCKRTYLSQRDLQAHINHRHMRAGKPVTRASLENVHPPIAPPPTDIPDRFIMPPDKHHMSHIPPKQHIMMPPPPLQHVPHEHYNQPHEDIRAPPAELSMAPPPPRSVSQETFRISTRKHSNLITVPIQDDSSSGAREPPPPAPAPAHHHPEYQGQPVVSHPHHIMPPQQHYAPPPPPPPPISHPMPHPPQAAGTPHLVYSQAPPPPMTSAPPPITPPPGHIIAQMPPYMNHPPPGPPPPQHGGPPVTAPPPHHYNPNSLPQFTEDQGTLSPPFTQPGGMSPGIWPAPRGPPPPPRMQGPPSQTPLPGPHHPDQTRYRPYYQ
Protocol: For ubiquitination assays, 750.000 HEK293T cells were seeded in 6-well cell culture plates and after 24 h were transfected with 0.25 μg Src, 0.75 μg Flag-Hakai, and 0.5 μg HA-ubiquitin with Lipofectamin 2000 (Invitrogen, UK). Six hours after transfection cells were treated with indicated concentrations of Hakin-1, Hakin-5 or the rest of the compounds tested for 36 h. Whole cell extracts were obtained in lysis buffer (20 mM Tris-HCl pH 7.5, 150 mM NaCl and 1% Triton X-100) containing 10 μg/ml leupeptin, 10 μg/ml aprotinin and 1 mM phenylmethanesulphonyl fluoride (PMSF), supplemented with 10 mM N-ethylmaleimide. Cells were harvested and subjected to western blotting using anti-HA antibody to detect ubiquitination.

[4] = tested on: HCT116 colon cancer cells; assay: MTT cell viability assay, HCT116; format: cell-based, human; conditions: concentrations tested in the previous assays
Protocol: (§2) For cytotoxicity assays, 1×10^4 cells were seeded per well into a 96-well plate. After 24 h cells were treated with the indicated inhibitors for 72 h and a MTT colorimetric cell viability assay was performed following manufacturer's instructions (Sigma Aldrich, St Louis, Mo.). Absorbance was measured at 570 and 630 nm using a Multiskan Plus Reader (Nanoquant Infinite M200 Tecan Trading AG, Switzerland). Dose-response curves were designed with Graph Pad Prism Software and the half-maximal inhibitory concentration (IC50) values were calculated. Represented data are the mean±SEM of at least three independent experiments with six replicates per condition.

[5] = tested on: non-cancerous HEK293T cells; assay: MTT cell viability assay, HEK293T; format: cell-based, human; conditions: concentrations tested in the previous assays
Protocol: as §2

HT29 cell line = assay: Invasion assay, HT29 (dose/response); format: cell-based, human; conditions: for cell invasion: treated 48 h, 1 μM, 10 μM, 50 μM, vs DMSO
Protocol: [The procedure below names another cell line; the source lists this cell line under the same test.] For invasion assays, cells were treated with Hakin-1 or DMSO as vehicle for 48 h using 1% FBS during the last 24 hours. 3×10^5 MDCK, MDCK-Hakai or LoVo cells were seeded in a cell invasion chamber (Cell invasion assay kit, Chemicon International) containing medium with 2% FBS. After 72 hours for MDCK and MDCK-Hakai Invasive and 16 h for LoVo cells, invasive cells invaded that reach the lower chamber containing 30% FBS were fixed and stained with crystal violet (Sigma Aldrich, St Louis, Mo.) following the manufacturer's specifications. For migration assays, HT29 cells were cultured with Hakin-1 or DMSO as vehicle for 48 h, using medium without serum the last 24 h. In the cell migration chamber were seeded 3×10^5 HT29 cells (Cell migration kit, Millipore, Bedford, Mass.) containing medium without serum. After 16 h, migrated cells in the lower chamber containing serum with 30% FBS were stained with crystal violet and counted following the manufacturer's specifications. For both invasion and migration assays cells were counted in five fields photographed with an Olympus microscope using a 20× objective, experiments were performed in triplicates for each condition and the assays were repeated at least three times. Results are expressed as mean±SD.

HT-29 cells [6] = assay: Immunofluorescence of E-cadherin, HT-29; format: cell-based, human; conditions: for E-cadherin expression at cell-cell contacts (immunofluorescence, Image J): 48 hours, 5-100 μM, vs DMSO vehicle control
Protocol: as §1

[7] = tested on: Colon cancer HCT116 cells; assay: BrdU proliferation assay, HCT116; format: cell-based, human; conditions: 48 h
Protocol: (§3) For BrdU assays, 1×10^4 of indicated cells were plated per well into a 96-well plate. After 24 h, cells were treated with the indicated inhibitors for 48 h. Three independent experiments were plated with six replicates per each condition. Cells were treated with […] BrdU for 2 h. BrdU incorporation into newly synthesized DNA was measured using a cell proliferation colorimetric immunoassay kit according to the manufacturer's instructions (Roche, Switzerland). Results are expressed as mean±S.D. Results are represented as percentage of positive cells (mean±S.D) of three independent experiments.

[8] = tested on: normal epithelial MDCK cell line; assay: MTT cell viability assay, MDCK; format: cell-based; conditions: compared with Hakai-MDCK
Protocol: as §2

[9] = tested on: Hakai-MDCK cell lines (clone 4 and clone 11); assay: MTT cell viability assay, Hakai-MDCK; format: cell-based; conditions: Hakai-MDCK clone 4 and clone 11, compared with MDCK
Protocol: as §2

HT-29 cells [10] = assay: Phase-contrast cell phenotype, HT-29; format: cell-based, human
Protocol: (§4) MDCK, HEK293T, HepG2, MCF7 and ACHN cells were cultured in Dulbecco's Modified Eagles Medium (DMEM). MDCK stably expressing Hakai cells (Hakai-MDCK) were previously reported and were growth in DMEM with G418 (800 μg/ml). […] LoVo and PC-3 cells were cultured in F-12K Medium (Kaighn's Modification of Ham's F-12 Medium) and HT-29 and HCT116 cells in McCoy's 5a Medium Modified. 5637 cells were cultured in RPMI medium. All culture media were supplemented with 1% penicillin/streptomycin and 10% of heat-inactivated fetal bovine serum (FBS) at 37° C. in a humidified incubator with 5% CO2. Cells were monthly tested for mycoplasma contamination and used only for 1-3 months after defrosted. LoVo and HT29 cells were authenticated with the StemElite ID system (Promega). For phase-contrast images, culture cells were photographed with a Nikon Eclipse-TI microscope.

LoVo cells [11] = assay: Phase-contrast cell phenotype, LoVo; format: cell-based
Protocol: as §4

[12] = tested on: Hakai-transformed MDCK cells; assay: Phase-contrast cell phenotype, Hakai-MDCK; format: cell-based; conditions: Hakai-transformed MDCK cells (mesenchymal phenotype)
Protocol: as §4

epithelial MDCK cells = assay: Phase-contrast cell phenotype, MDCK; format: cell-based
Protocol: as §4

HT-29 cells [13] = assay: Western blotting of EMT markers, HT-29; format: cell-based, human; conditions: 48 h
Protocol: as §1

HT29 cells = assay: BrdU proliferation assay, HT29; format: cell-based, human; conditions: 48 h
Protocol: as §3

LoVo cells [14] = assay: BrdU proliferation assay, LoVo; format: cell-based; conditions: 48 h
Protocol: as §3

## COC(=O)Nc1nc2ccc(C(=O)c3cccs3)cc2[nH]1 [nocodazole]
[1]; 250 ng/ml
  increase of E-cadherin expression levels: 32%
[1]; 500 ng/ml
  increase of E-cadherin expression levels: 42%
[1]; 1000 ng/ml
  increase of E-cadherin expression levels: 47%
HT-29 cells [2]; 24 hours, vs DMSO vehicle control
  cell cycle: dramatic shift towards G2/M phase arrest

## O=C(O)c1ccc(-n2nnnc2SC(c2ccccc2)c2ccc(Cl)cc2)cc1 (stereo not shown) [Compound K1]
[3]
  Hakai-induced ubiquitination: reduced ubiquitination at 20 μM and 100 μM
[4]
  cytotoxic effect (cell viability, MTT): no cytotoxic effect
[5]
  cytotoxic effect (cell viability, MTT): no cytotoxic effect
[1]; 100 μM
  E-cadherin levels at cell-cell contacts: significantly increased E-cadherin levels at cell-cell contacts
HT-29 cells [2]; 100 μM, 48 hours
  cell cycle: arrested the cells in G0/G1 phase
  cell numbers: reduced the cell numbers
HT29 cell line
  cell invasion: reduce cell invasion

## O=C(O)c1ccc(-n2nnnc2SC2CCc3ccccc3NC2=O)cc1 (stereo not shown) [Compound K33]
HT-29 cells [6]
  E-cadherin expression at cell-cell contacts (immunofluorescence, Image J): increase E-cadherin levels at cell-cell contacts

## Cc1ccc(CNC(=O)CSc2nc3sccc3c(=O)n2-c2ccc(C(=O)O)cc2)cc1 [Compound K8]
[3]
  Hakai-induced ubiquitination: reduce ubiquitination at 20 μM
[4]
  cytotoxic effect (cell viability, MTT): inhibitory response in cancer cells
[5]
  cytotoxic effect (cell viability, MTT): no effect was detected in non-tumour cells
HT-29 cells [6]
  E-cadherin expression at cell-cell contacts (immunofluorescence, Image J): increase E-cadherin levels at cell-cell contacts
[7]
  cell proliferation (BrdU): inhibit cell proliferation
HT29 cell line; Homo sapiens, HT-29, treated 48 h, read-out: concentration at which 50% inhibition of invasion was achieved
  IC50: ~1 µM
HT29 cell line
  cell invasion: reduce cell invasion

## Cc1ccc(NC(=O)CSc2nnnn2-c2cccc(C(=O)O)c2)cc1C [Compound K2]
[1]; 100 μM or 20 μM
  E-cadherin levels at cell-cell contacts: Significant differences were also detected
HT-29 cells [2]; 100 μM, 48 hours
  cell cycle: arrested the cells in G0/G1 phase
  cell numbers: reduced the cell numbers

## CC(/C=C/C(=O)O)=C\CC(O)/C(C)=C/CCC(C)C(C)O (stereo not shown) [Hakin-5, (2E,4E,8E)-7,13-Dihydroxy-4,8,12-trimethyl-2,4,8-tetradecatrienoic acid, reference compound]
[3]; 293T cells transfected with Src, Flag-Hakai and HA-ubiquitin, western blotting anti-HA
  ubiquitination mediated by Hakai: no effect was detected on Hakai-mediated ubiquitination
[8]
  sensitivity to treatment (cell viability, MTT): more resistant
[9]
  sensitivity to treatment (cell viability, MTT): more sensitive
HT-29 cells [10]
  cell phenotype by phase contrast: modestly induce an epithelial phenotype
LoVo cells [11]
  cell phenotype by phase contrast: modestly induce an epithelial phenotype
[12]
  cell phenotype by phase contrast: induction of an epithelial phenotype
Epithelial MDCK cells
  cell phenotype by phase contrast: no effect was observed
HT-29 cells [13]; HT29
  EMT markers expression (E-Cadherin, Cortactin, Hakai): does not affect the EMT markers expression
HT-29 cells [13]; HT-29
  E-cadherin levels (western blotting): no effect by western-blotting or immunofluorescence was detected on E-cadherin protein levels
HT-29 cells [6]; 48 h, vs DMSO
  E-cadherin levels at cell-cell contacts (immunofluorescence): no effect by western-blotting or immunofluorescence was detected on E-cadherin protein levels
HT29 cells
  cell proliferation (BrdU): no effect was seen
LoVo cells [14]
  cell proliferation (BrdU): no effect was seen
